# Measured values taken from BindingDB's records for doi:10.7270/Q2NS0S8J (University of Pittsburgh, 2007).
# Biological target: T1, M-phase inducer phosphatase 2 (Homo sapiens, UniProt P30305)
# T1 sequence (P30305 whole entry): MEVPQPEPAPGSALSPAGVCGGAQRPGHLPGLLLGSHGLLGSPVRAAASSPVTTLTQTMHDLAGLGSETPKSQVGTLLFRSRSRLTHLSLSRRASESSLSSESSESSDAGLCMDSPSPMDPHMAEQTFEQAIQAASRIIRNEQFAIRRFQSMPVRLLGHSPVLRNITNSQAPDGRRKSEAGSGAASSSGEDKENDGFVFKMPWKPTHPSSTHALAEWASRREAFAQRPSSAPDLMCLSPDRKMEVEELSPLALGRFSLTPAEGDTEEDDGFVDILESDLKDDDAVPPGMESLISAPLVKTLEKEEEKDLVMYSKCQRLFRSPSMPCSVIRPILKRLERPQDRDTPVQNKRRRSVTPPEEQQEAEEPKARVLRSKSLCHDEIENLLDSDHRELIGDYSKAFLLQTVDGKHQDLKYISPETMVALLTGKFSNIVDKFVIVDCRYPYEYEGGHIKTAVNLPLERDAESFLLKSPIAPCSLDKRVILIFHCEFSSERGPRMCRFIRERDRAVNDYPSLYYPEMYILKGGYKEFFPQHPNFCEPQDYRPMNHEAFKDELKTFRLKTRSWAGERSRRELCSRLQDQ
# Experiment: Cdc25B inhibition under reducing thiol conditions, late-stage follow-up, Cdc25B inhibitor project, biochemical, beta-mercaptoethanol present, catalytic domain, IC50 (AID 670)
row,SMILES,IC50 [µM]
1,"CCn1nc(-c2cccs2)nc2c(=O)n(C)c(=O)nc1-2 [1-ethyl-6-methyl-3-thiophen-2-yl-pyrimido[5,4-e][1,2,4]triazine-5,7-dione]",41.8
2,"COc1ccc(Br)cc1C=c1sc2nc(-c3ccco3)nn2c1=O [5-[(5-bromanyl-2-methoxy-phenyl)methylidene]-2-(furan-2-yl)-[1,3]thiazolo[3,2-b][1,2,4]triazol-6-one]",1.78
3,"CC(=O)Nc1cc(OC(C)=O)c2nonc2c1OC(C)=O [Acetic acid 7-acetoxy-5-acetylamino-benzo[1,2,5]oxadiazol-4-yl ester]",> 50
4,"O=C1Cc2ccccc2C(=O)N1CCc1ccccc1 [2-(2-phenylethyl)-4H-isoquinoline-1,3-dione]",> 50
5,Cn1ncnc2c(=O)n(C)c(=O)nc1-2,32.4
6,"N#Cc1c(N)sc(=S)c2c1CCN(Cc1ccccc1)C2 [3-Amino-7-benzyl-1-thioxo-5,6,7,8-tetrahydro-1H-thiopyrano[3,4-c]pyridine-4-carbonitrile]",33.1
7,[O-]/[N+](=C\c1ccncc1)c1ccccc1,> 50
8,Cc1ccc2c(c1)C1C=CCC1C(C(=O)O)N2 (stereo not given) [MLS-0067149.0001],5.2
9,Cc1c(N=c2c(=O)c3ccccc3c2=O)c(=O)n(-c2ccccc2)n1C [MLS000105950],> 50
10,CCOC(=O)C(C(=O)OCC)c1cc(Br)c2noc3c2c1C(=O)c1ccccc1-3 [MLS000038842],> 50
11,c1ccc(CSc2nnc(-c3ccco3)c(-c3ccco3)n2)cc1 [MLS-0029114.0001],10.3
12,Cc1ccccc1Nc1cc2ccccc2c(O)n1 [3-[(2-methylphenyl)amino]-2H-isoquinolin-1-one],> 50
13,COc1cccc2c(C)c(C(=O)O)[nH]c12,6.35
14,Cc1ccc2c(c1C)NC(C(=O)O)C1CC=CC21 (stereo not given),4.2
15,Nc1cccc2cnccc12 [isoquinolin-5-amine],> 50
16,"O=C1C=Cc2ccccc2C1=O [1,2-dihydronaphthalene-1,2-dione]",20.4
17,"CCn1nc(-c2ccccc2)nc2c(=O)n(C)c(=O)nc1-2 [1-Ethyl-6-methyl-3-phenyl-1H-pyrimido[5,4-e][1,2,4]triazine-5,7-dione]",> 50
18,N#Cc1c(N2CCCC2)nc(N)c2c(N)nc(N3CCCC3)cc12 [SMR000061605],> 50
19,"O=C(NC1(O)C(=O)c2ccccc2C1=O)c1ccccc1 [N-(2-hydroxy-1,3-dioxo-2-indenyl)benzamide]",> 50
20,O=C(O)C1Nc2c(O)cccc2C2C=CCC12 (stereo not given),7.42
21,[O-]/[N+](=C\c1ccc(OC(F)F)cc1)c1ccccc1 [1-[4-(difluoromethoxy)phenyl]-N-phenylmethanimine oxide],> 50
22,O=C(Nc1ccc2nc(-c3ccco3)c(-c3ccco3)nc2c1)N1CCCCCC1,19.2
23,COc1ccc2noc3c2c1C(=O)c1ccccc1-3 [MLS000106874],> 50
24,Oc1nc(Nc2ccccc2)cc2ccccc12 [MLS000043701],> 50
25,CCOc1ccc2noc3c2c1C(=O)c1ccccc1-3 [MLS000106837],> 50
